Structures are written as SMILES.

Type in all cases: functional
What all share (design): scale not given: the % may be the effect or the level left

Assay [1] concerns Rattus norvegicus. The experiment in a line: Antihyperglycemic activity in STZ-induced diabetic Sprague-Dawley rat assessed as decrease in blood glucose at 100 mg/kg, po after 30 mins relative to control.
The subject of assay [2] is Rattus norvegicus. The assay is described as follows: Antihyperglycemic activity in STZ-induced diabetic Sprague-Dawley rat assessed as decrease in blood glucose at 100 mg/kg, po after 60 mins relative to control.
For assay [3], the system named is Rattus norvegicus. The experiment in a line: Antihyperglycemic activity in STZ-induced diabetic Sprague-Dawley rat assessed as decrease in blood glucose at 100 mg/kg, po after 90 mins relative to control.
Assay [4] deals with Rattus norvegicus. The experiment in a line: Antihyperglycemic activity in STZ-induced diabetic Sprague-Dawley rat assessed as decrease in blood glucose at 100 mg/kg, po after 120 mins relative to control.
The subject of assay [5] is Rattus norvegicus. The experiment in a line: Antihyperglycemic activity in STZ-induced diabetic Sprague-Dawley rat assessed as decrease in blood glucose at 100 mg/kg, po after 180 mins relative to control.
Assay [6] has as its system Rattus norvegicus. The experiment in a line: Antihyperglycemic activity in STZ-induced diabetic Sprague-Dawley rat assessed as decrease in blood glucose at 100 mg/kg, po after 240 mins relative to control.
The test system of assay [7] is Rattus norvegicus. The experiment in a line: Antihyperglycemic activity in STZ-induced diabetic Sprague-Dawley rat assessed as decrease in blood glucose at 100 mg/kg, po after 5 hrs relative to control.
Assay [8] deals with Rattus norvegicus. The experiment in a line: Antihyperglycemic activity in STZ-induced diabetic Sprague-Dawley rat assessed as decrease in blood glucose at 100 mg/kg, po after 24 hrs relative to control.

With `CSc1cc(-c2ccco2)oc(=O)c1C#N`, the Activity in the assay on Rattus norvegicus [1] worked out at 11.8%; with Rattus norvegicus [2] it was 16.5%; with Rattus norvegicus [3], 19.6%; with Rattus norvegicus [4] it was 19.8%; with Rattus norvegicus [5], 8.1%; in the assay with Rattus norvegicus [6] it was 2.3%. Moreover, the Activity with Rattus norvegicus [7] is 6.8%; in the assay with Rattus norvegicus [8], 6.7%.

With `Cc1cc(-c2cc(N3CCCC3)c(C#N)c(=O)o2)c(C)o1`, the Activity was 12.5% with Rattus norvegicus [1]; 17.3% with Rattus norvegicus [2]; 20.9% in the assay on Rattus norvegicus [3]; 20.9% with Rattus norvegicus [4]; 7.8% in the assay on Rattus norvegicus [5]; 1.2% in the assay with Rattus norvegicus [6]. The figures for the Activity in the assay on Rattus norvegicus [7] and with Rattus norvegicus [8] were 4.5% and 10.5%, respectively.

With `Cc1cc(-c2cc(N3CCCCC3)c(C#N)c(=O)o2)c(C)o1`, the Activity turned out to be 8.6% in the assay on Rattus norvegicus [1]; 9.4% in the assay with Rattus norvegicus [2]; 6.8% with Rattus norvegicus [3]; 8.7% in the assay with Rattus norvegicus [4]; 0.8% in the assay on Rattus norvegicus [5]; 1% in the assay with Rattus norvegicus [6]. In addition, the values for the Activity in the assay on Rattus norvegicus [7] and in the assay on Rattus norvegicus [8] were 5.2% and 19.7%, respectively.

`Cc1cc(-c2cc(N3CCOCC3)c(C#N)c(=O)o2)c(C)o1`: the Activity with Rattus norvegicus [1] is 16.6%; in the assay with Rattus norvegicus [2], 18.4%; in the assay on Rattus norvegicus [3], 24%; with Rattus norvegicus [4], 29%; with Rattus norvegicus [5], 18.5%; with Rattus norvegicus [6] it was 20.7%. The figures for the Activity in the assay on Rattus norvegicus [7] and with Rattus norvegicus [8] were 20.3% and 29.7%, respectively.

Consider `Cc1cc(-c2cc(N3CCC(C)CC3)c(C#N)c(=O)o2)c(C)o1`, for which the Activity is reported as 12.5% in the assay on Rattus norvegicus [1]; 16.3% with Rattus norvegicus [2]; 20.9% with Rattus norvegicus [3]; 16.8% in the assay on Rattus norvegicus [4]; 2.6% in the assay with Rattus norvegicus [5]; 2.8% with Rattus norvegicus [6]. Moreover, the Activity with Rattus norvegicus [7] was found to be 5.5%; with Rattus norvegicus [8], 4.2%.

`CSc1cc(-c2cc(C)oc2C)oc(=O)c1C#N`: the Activity with Rattus norvegicus [1] came out at 12.6%; with Rattus norvegicus [2], 16.2%; in the assay with Rattus norvegicus [3] it was 21.2%; in the assay on Rattus norvegicus [4], 16.5%; with Rattus norvegicus [5], 2.3%; in the assay with Rattus norvegicus [6], 2.5%. Also, the Activity in the assay with Rattus norvegicus [7] turned out to be 5.2%; in the assay on Rattus norvegicus [8], 4.5%.

In the case of `CSc1cc(-c2cc(C)oc2C)oc(=O)c1C(N)=O`, the Activity amounted to 13.2% with Rattus norvegicus [1]; 28.8% in the assay with Rattus norvegicus [2]; 33% in the assay on Rattus norvegicus [3]; 29.4% in the assay with Rattus norvegicus [4]; 16.3% with Rattus norvegicus [5]; 12.6% in the assay with Rattus norvegicus [6]. The Activity in the assay with Rattus norvegicus [7] worked out at 11.2%; in the assay on Rattus norvegicus [8], 23.9%.

As to `CSc1cc(-c2ccco2)oc(=O)c1C(N)=O`, the Activity in the assay with Rattus norvegicus [1] was found to be 8.5%; in the assay on Rattus norvegicus [2], 9.6%; in the assay on Rattus norvegicus [3], 6.3%; in the assay on Rattus norvegicus [4], 8.9%; in the assay with Rattus norvegicus [5], 1.2%; in the assay with Rattus norvegicus [6], 1.3%. Further, the Activity in the assay with Rattus norvegicus [7] is reported as 5.52%; in the assay on Rattus norvegicus [8], 19.3%.

As for `N#Cc1c(N2CCOCC2)cc(-c2ccco2)oc1=O`, the Activity with Rattus norvegicus [1] came to 13.1%; in the assay with Rattus norvegicus [2] it was 15.9%; in the assay with Rattus norvegicus [3] it was 19.8%; in the assay with Rattus norvegicus [4], 17.4%; in the assay on Rattus norvegicus [5], 1.8%; in the assay on Rattus norvegicus [6], 5.2%. The Activity turned out to be 9.8% in the assay on Rattus norvegicus [7] and 0.5% in the assay with Rattus norvegicus [8].

On to `CN1CCN(c2cc(-c3ccco3)oc(=O)c2C#N)CC1`, for which the Activity in the assay on Rattus norvegicus [1] was 12.5%; with Rattus norvegicus [2], 17.5%; in the assay with Rattus norvegicus [3], 17.3%; with Rattus norvegicus [4], 22.8%; with Rattus norvegicus [5], 16.8%; with Rattus norvegicus [6], 14.6%. In addition, the Activity in the assay with Rattus norvegicus [7] is 12.8%; in the assay on Rattus norvegicus [8] it was 20%.

Consider `N#Cc1c(N2CCN(c3ccccc3)CC2)cc(-c2ccco2)oc1=O`, for which the Activity in the assay on Rattus norvegicus [1] was determined as 11.8%; in the assay on Rattus norvegicus [2], 15.7%; in the assay with Rattus norvegicus [3] it was 20.2%; with Rattus norvegicus [4], 15.9%; with Rattus norvegicus [5] it was 1.9%; with Rattus norvegicus [6] it was 3.9%. Besides, the Activity was 6.1% in the assay on Rattus norvegicus [7] and 2.5% in the assay on Rattus norvegicus [8].

In the case of `N#Cc1c(N2CCCCC2)cc(-c2ccco2)oc1=O`, the Activity in the assay on Rattus norvegicus [1] turned out to be 12.8%; in the assay on Rattus norvegicus [2], 17.5%; in the assay on Rattus norvegicus [3] it was 21.1%; in the assay on Rattus norvegicus [4], 21.3%; in the assay on Rattus norvegicus [5], 7.5%; in the assay on Rattus norvegicus [6], 1.4%. Moreover, the Activity with Rattus norvegicus [7] was found to be 4.8%; in the assay with Rattus norvegicus [8] it was 10.4%.

Turning to `CN(C)C(=N)NC(=N)N` [METFORMIN], the Activity with Rattus norvegicus [1] is given as 15.9%; in the assay with Rattus norvegicus [2], 18.2%; in the assay with Rattus norvegicus [3], 24.5%; in the assay with Rattus norvegicus [4] it was 29.2%; in the assay with Rattus norvegicus [5] it was 18.7%; with Rattus norvegicus [6] it was 21.1%. For the same compound, the figures for the Activity with Rattus norvegicus [7] and in the assay on Rattus norvegicus [8] were 20.7% and 30%, respectively.

Values taken from ChEMBL document CHEMBL1144629, “Synthesis and in vivo antihyperglycemic activity of nature-mimicking furanyl-2-pyranones in STZ-S model” (2007).
